Key:
[1] = system: NCoR1; assay: NCoR1 mRNA and protein in MEFs cultured with oleic acid; type: cell-based, mouse; settings: oleic acid added to the medium (0.03 mM, 48 hr), independently of the glucose concentration
Experimental: (A-C) Localization of NCoR1 protein was determined either by immunofluorescence and quantified (A and B) and by western blot (C). 293T cells grown without (−) or with (+) 1 µM insulin for 1 hr were stained by DAPI or anti-NCoR1 (A). Quantification of nuclear NCoR1 is shown in (B). Nuclear and cytosolic fractions were separated from FLAG-NCoR1 transfected 293T cells after a 1 hr-stimulation without (−) or with 1 μM insulin (+) and protein levels were determined by western blotting (C). (D) mRNA levels of NCoRs and its target genes determined by qRT-PCR in MEFs cultured for 24 hr in 5 or 25 mM glucose (n=6). (E) NCoR1 protein was determined by western blotting from MEFs cultured for 24 hr in 5 or 25 mM glucose. (F) NCoR1 and SMRT mRNA was determined in MEFs cultured for 48 hr in 0, 5, and 25 mM glucose. (G) NCoR1 protein was determined by western blotting from MEFs cultured for 24 hrs in 0, 5, or 25 mM glucose. […] (I) NCoR1 protein determined by western blotting from MEFs cultured as indicated in (G). (J) NCoR1 mRNA measured by qRT-PCR in muscles of resting mice or 3 hrs after an endurance run (14-wk old; n=5), in mice that were fed for 20 wks either with HFD or CD (28-wk old; n=8), in mice that were fasted or fed for 16 hrs (14-wk old; n=10), and in 6-month or 2-year old mice (n=10). […] Data are expressed as mean±SEM. […]

[2] = system: SMRT; assay: SMRT mRNA in MEFs cultured with oleic acid; type: cell-based, mouse; settings: with OA in the absence of glucose
Experimental: The mRNA expression levels were measured in cells and tissues using qRT-PCR (Lagouge et al., 2006).

[3] = system: NCoR1; assay: NCoR1 localization by immunofluorescence and subcellular fractionation in 293T cells; type: cell-based; settings: one hour after stimulation with 1 μM insulin
Experimental: (A-C) Localization of NCoR1 protein was determined either by immunofluorescence and quantified (A and B) and by western blot (C). 293T cells grown without (−) or with (+) 1 µM insulin for 1 hr were stained by DAPI or anti-NCoR1 (A). Quantification of nuclear NCoR1 is shown in (B). Nuclear and cytosolic fractions were separated from FLAG-NCoR1 transfected 293T cells after a 1 hr-stimulation without (−) or with 1 μM insulin (+) and protein levels were determined by western blotting (C). (D) mRNA levels of NCoRs and its target genes determined by qRT-PCR in MEFs cultured for 24 hr in 5 or 25 mM glucose (n=6). (E) NCoR1 protein was determined by western blotting from MEFs cultured for 24 hr in 5 or 25 mM glucose. (F) NCoR1 and SMRT mRNA was determined in MEFs cultured for 48 hr in 0, 5, and 25 mM glucose. (G) NCoR1 protein was determined by western blotting from MEFs cultured for 24 hrs in 0, 5, or 25 mM glucose. […] (I) NCoR1 protein determined by western blotting from MEFs cultured as indicated in (G). (J) NCoR1 mRNA measured by qRT-PCR in muscles of resting mice or 3 hrs after an endurance run (14-wk old; n=5), in mice that were fed for 20 wks either with HFD or CD (28-wk old; n=8), in mice that were fasted or fed for 16 hrs (14-wk old; n=10), and in 6-month or 2-year old mice (n=10). […] Data are expressed as mean±SEM.
(A) Localization of NCoR1 is determined by the immunofluorescence experiments. […]

[4] = system: Ucp3 promoter; assay: ChIP of endogenous NCoR1 recruitment to the Ucp3 promoter PPREs in C2C12 myotubes; type: cell-based, mouse; settings: 6 hr after addition of 100 nM GW501516
From the text: (A, B, E, F, and H) NCoR1 recruitment to the PPREs on mouse Ucp3 promoter and to the ERR-RE on human and mouse Pdk4 promoter determined by ChIP in NIH-3T3 cells transfected with an NCoR1-FLAG vector or in C2C12 myotubes. A schematic of the promoters of the Ucp3 (A) and Pdk4 (E) genes and the sequence alignment of the mouse, rat and human Pdk4 promoter is also shown to highlight the conservation of the NR1/2 (or ERR-RE) (E). Boxes indicate putative PPREs in the Ucp3 and the NR1/2, IRS, and Sp1 in the Pdk4 promoter. ChIP experiments for the Ucp3 promoter were performed in C2C12 myotubes both before and 6 hr after addition of a PPARIβ/δ (100 nM GW501516); not detected. ChIP experiments in HEK293 cells transfected with FLAG-NCoR1 and HA-ERRα vector (H). (C and G) Binding of acetylated histone 4 (H4) to the PPREs on the Ucp3 and to the NR1/2 on the Pdk4 promoters in ChIP assays, using either immortalized NCoR1^L2/L2MEFs, infected with an adenovirus either expressing GFP or Cre recombinase, or C2C12 myotubes infected with the Ad-shNCoR1 virus. Representative data is shown from 3 experiments. (D) Interaction between PPARβ/δ and NCoR1 determined by in vitro co-IP experiments from HEK293 cells, in which NCoR1-FLAG and/or V5-PPARβ/δ are expressed. […] Data are expressed as mean±SEM. […]

Compound: CCCCCCCC/C=C\CCCCCCCC(=O)O [oleic acid]
- NCoR1 levels [1]: decreased
- SMRT mRNA levels [2]: only a small difference

Compound: insulin
- amounts of endogenous NCoR1 or transfected FLAG-NCoR1 detected in nuclei [3]: higher amounts

Compound: Cc1cc(SCc2sc(-c3ccc(C(F)(F)F)cc3)nc2C)ccc1OCC(=O)O [GW501516]
- recruitment of NCoR1 to the Ucp3 promoter [4]: robustly inhibited

Source: patent US20140147434A1, “NCoR1 is a Physiological Modulator of Muscle Mass and Oxidative Function” (ECOLE POLYTECHNIQUE FEDERALE DE LAUSANNE (EPFL), priority 2011, published 2014)
